# Measurements: ChEMBL document CHEMBL4706476, “Novel Tetrahydropyrido[4,3-d]pyrimidines as Potent Inhibitors of Chaperone Heat Shock Protein 90” (J Med Chem, 2016)
# Biological target: Heat shock protein HSP 90-alpha (Homo sapiens, UniProt P07900)
# Test: Displacement of FITC-geldanamycin from N-terminal HSP90alpha (unknown origin) after 30 mins by fluorescence polarization competitive binding assay
# Details: not given
row,SMILES,IC50
1,CC(C)c1cc(C(=O)N2CCc3nc(OCCN4CCCC4)ncc3C2)c(O)cc1O,29 nM
2,CCCCN(CCCC)c1ncc2c(n1)CCN(C(=O)c1cc(C(C)C)c(O)cc1O)C2,343 nM
3,CCN(CC)CCOc1ncc2c(n1)CCN(C(=O)c1cc(C(C)C)c(O)cc1O)C2,32 nM
4,CC(C)c1cc(C(=O)N2CCc3nc(OC4CCCC4)ncc3C2)c(O)cc1O,71 nM
5,CCCN(CCC)c1ncc2c(n1)CCN(C(=O)c1cc(C(C)C)c(O)cc1O)C2,370 nM
6,CCN(CC)c1ncc2c(n1)CCN(C(=O)c1cc(C(C)C)c(O)cc1O)C2,201 nM
7,CNc1ncc2c(n1)CCN(C(=O)c1cc(C(C)C)c(O)cc1O)C2,113 nM
8,CC(C)c1cc(C(=O)N2CCc3nc(OC4CCOCC4)ncc3C2)c(O)cc1O,56 nM
9,CC(C)c1cc(C(=O)N2CCc3nc(N4CCOCC4)ncc3C2)c(O)cc1O,110 nM
10,CC(C)c1cc(C(=O)N2CCc3nc(OCCCN(C)C)ncc3C2)c(O)cc1O,36 nM
11,CC(C)Nc1ncc2c(n1)CCN(C(=O)c1cc(C(C)C)c(O)cc1O)C2,222 nM
12,CCN1CCN(c2ncc3c(n2)CCN(C(=O)c2cc(C(C)C)c(O)cc2O)C3)CC1,191 nM
13,CCNc1ncc2c(n1)CCN(C(=O)c1cc(C(C)C)c(O)cc1O)C2,167 nM
14,CCCCOc1ncc2c(n1)CCN(C(=O)c1cc(C(C)C)c(O)cc1O)C2,88 nM
15,CC(C)c1cc(C(=O)N2CCc3nc(N4CCCCC4)ncc3C2)c(O)cc1O,172 nM
16,CCCOc1ncc2c(n1)CCN(C(=O)c1cc(C(C)C)c(O)cc1O)C2,60 nM
17,Cc1ncc2c(n1)CCN(C(=O)c1cc(Br)c(O)cc1O)C2,132 nM
18,CC(C)c1cc(C(=O)N2CCc3nc(OC4CCCCC4)ncc3C2)c(O)cc1O,103 nM
19,Cc1ncc2c(n1)CCN(C(=O)c1cc(Cl)c(O)cc1O)C2,101 nM
20,CC(C)c1cc(C(=O)N2CCc3nc(N4CCN(C)CC4)ncc3C2)c(O)cc1O,271 nM

# System: not listed separately
# Test: Distribution coefficient, logD of compound at pH 7.4
# Assay type: physicochemical
# Details: octanol/water
row,SMILES,logD
1,CC(C)c1cc(C(=O)N2CCc3nc(OCCN4CCCC4)ncc3C2)c(O)cc1O,1.12
2,CCN(CC)CCOc1ncc2c(n1)CCN(C(=O)c1cc(C(C)C)c(O)cc1O)C2,1.17
3,CC(C)c1cc(C(=O)N2CCc3nc(OCCCN(C)C)ncc3C2)c(O)cc1O,1.09

# System: not listed separately
# Test: Selectivity ratio of IC50 for inhibition of FITC-geldanamycin binding to N-terminal GRP94 (unknown origin) to IC50 for inhibition of FITC-geldanamycin binding to N-terminal HSP90alpha (unknown origin)
# Details: not given
row,SMILES,Ratio IC50
1,CCN(CC)CCOc1ncc2c(n1)CCN(C(=O)c1cc(C(C)C)c(O)cc1O)C2,6.8
2,CCCCOc1ncc2c(n1)CCN(C(=O)c1cc(C(C)C)c(O)cc1O)C2,7.6
3,CCCOc1ncc2c(n1)CCN(C(=O)c1cc(C(C)C)c(O)cc1O)C2,8.3

# Biological target: Endoplasmin (Homo sapiens, UniProt P14625)
# Sequence (P14625 whole entry): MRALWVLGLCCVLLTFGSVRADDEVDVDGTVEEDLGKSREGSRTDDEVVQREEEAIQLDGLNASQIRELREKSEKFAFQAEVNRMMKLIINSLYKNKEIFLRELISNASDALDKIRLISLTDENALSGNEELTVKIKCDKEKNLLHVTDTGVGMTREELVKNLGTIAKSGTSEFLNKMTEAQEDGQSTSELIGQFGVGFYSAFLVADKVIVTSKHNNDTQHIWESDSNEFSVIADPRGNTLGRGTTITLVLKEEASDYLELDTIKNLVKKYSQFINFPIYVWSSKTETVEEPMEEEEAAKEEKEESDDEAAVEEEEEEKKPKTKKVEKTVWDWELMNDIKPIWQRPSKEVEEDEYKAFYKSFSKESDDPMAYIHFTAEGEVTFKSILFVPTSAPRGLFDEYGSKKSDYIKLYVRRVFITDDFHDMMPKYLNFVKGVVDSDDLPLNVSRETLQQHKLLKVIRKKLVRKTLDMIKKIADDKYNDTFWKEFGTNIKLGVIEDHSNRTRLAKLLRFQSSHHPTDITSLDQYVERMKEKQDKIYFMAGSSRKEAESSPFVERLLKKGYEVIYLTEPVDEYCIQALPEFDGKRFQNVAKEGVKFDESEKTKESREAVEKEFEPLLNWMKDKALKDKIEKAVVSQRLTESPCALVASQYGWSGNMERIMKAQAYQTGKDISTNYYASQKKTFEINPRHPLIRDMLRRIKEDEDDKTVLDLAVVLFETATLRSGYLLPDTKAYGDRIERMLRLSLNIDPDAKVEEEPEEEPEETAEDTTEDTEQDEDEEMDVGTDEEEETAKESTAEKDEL
# Test: Displacement of FITC-geldanamycin from N-terminal GRP94 (unknown origin) after 30 mins by fluorescence polarization competitive binding assay
# Details: not given
row,SMILES,IC50
1,CCN(CC)CCOc1ncc2c(n1)CCN(C(=O)c1cc(C(C)C)c(O)cc1O)C2,217 nM
2,CCCCOc1ncc2c(n1)CCN(C(=O)c1cc(C(C)C)c(O)cc1O)C2,670 nM
3,CCCOc1ncc2c(n1)CCN(C(=O)c1cc(C(C)C)c(O)cc1O)C2,498 nM

# System: HCT-116
# Test: cells
# Details: Homo sapiens, HCT-116, 72 h
# Description: Antiproliferative activity against human HCT-116 cells assessed as reduction in cell viability incubated for 72 hrs by MTT assay
row,SMILES,IC50
1,CC(C)c1cc(C(=O)N2CCc3nc(OCCN4CCCC4)ncc3C2)c(O)cc1O,980 nM
2,CCCCN(CCCC)c1ncc2c(n1)CCN(C(=O)c1cc(C(C)C)c(O)cc1O)C2,1290 nM
3,CCN(CC)CCOc1ncc2c(n1)CCN(C(=O)c1cc(C(C)C)c(O)cc1O)C2,890 nM
4,CC(C)c1cc(C(=O)N2CCc3nc(OC4CCCC4)ncc3C2)c(O)cc1O,1720 nM
5,CCCN(CCC)c1ncc2c(n1)CCN(C(=O)c1cc(C(C)C)c(O)cc1O)C2,5700 nM
6,CCN(CC)c1ncc2c(n1)CCN(C(=O)c1cc(C(C)C)c(O)cc1O)C2,4420 nM
7,CNc1ncc2c(n1)CCN(C(=O)c1cc(C(C)C)c(O)cc1O)C2,740 nM
8,CC(C)c1cc(C(=O)N2CCc3nc(OC4CCOCC4)ncc3C2)c(O)cc1O,600 nM
9,CC(C)c1cc(C(=O)N2CCc3nc(N4CCOCC4)ncc3C2)c(O)cc1O,1470 nM
10,CC(C)c1cc(C(=O)N2CCc3nc(OCCCN(C)C)ncc3C2)c(O)cc1O,920 nM
11,CC(C)Nc1ncc2c(n1)CCN(C(=O)c1cc(C(C)C)c(O)cc1O)C2,2430 nM
12,CCN1CCN(c2ncc3c(n2)CCN(C(=O)c2cc(C(C)C)c(O)cc2O)C3)CC1,1650 nM
13,CCNc1ncc2c(n1)CCN(C(=O)c1cc(C(C)C)c(O)cc1O)C2,1560 nM
14,CCCCOc1ncc2c(n1)CCN(C(=O)c1cc(C(C)C)c(O)cc1O)C2,1270 nM
15,CC(C)c1cc(C(=O)N2CCc3nc(N4CCCCC4)ncc3C2)c(O)cc1O,1550 nM
16,CCCOc1ncc2c(n1)CCN(C(=O)c1cc(C(C)C)c(O)cc1O)C2,1080 nM
17,Cc1ncc2c(n1)CCN(C(=O)c1cc(Br)c(O)cc1O)C2,1530 nM
18,CC(C)c1cc(C(=O)N2CCc3nc(OC4CCCCC4)ncc3C2)c(O)cc1O,2780 nM
19,CC(C)c1cc(C(=O)N2CCc3nc(N4CCN(C)CC4)ncc3C2)c(O)cc1O,1710 nM

# System: MCF7
# Test: cells
# Details: Homo sapiens, MCF7, 72 h
row,SMILES,IC50
1,CC(C)c1cc(C(=O)N2CCc3nc(OCCN4CCCC4)ncc3C2)c(O)cc1O,1930 nM
2,CCCCN(CCCC)c1ncc2c(n1)CCN(C(=O)c1cc(C(C)C)c(O)cc1O)C2,1120 nM
3,CCN(CC)CCOc1ncc2c(n1)CCN(C(=O)c1cc(C(C)C)c(O)cc1O)C2,2900 nM
4,CC(C)c1cc(C(=O)N2CCc3nc(OC4CCCC4)ncc3C2)c(O)cc1O,1190 nM
5,CCCN(CCC)c1ncc2c(n1)CCN(C(=O)c1cc(C(C)C)c(O)cc1O)C2,3090 nM
6,CCN(CC)c1ncc2c(n1)CCN(C(=O)c1cc(C(C)C)c(O)cc1O)C2,2160 nM
7,CNc1ncc2c(n1)CCN(C(=O)c1cc(C(C)C)c(O)cc1O)C2,1250 nM
8,CC(C)c1cc(C(=O)N2CCc3nc(OC4CCOCC4)ncc3C2)c(O)cc1O,820 nM
9,CC(C)c1cc(C(=O)N2CCc3nc(N4CCOCC4)ncc3C2)c(O)cc1O,1820 nM
10,CC(C)c1cc(C(=O)N2CCc3nc(OCCCN(C)C)ncc3C2)c(O)cc1O,2370 nM
11,CC(C)Nc1ncc2c(n1)CCN(C(=O)c1cc(C(C)C)c(O)cc1O)C2,2680 nM
12,CCN1CCN(c2ncc3c(n2)CCN(C(=O)c2cc(C(C)C)c(O)cc2O)C3)CC1,1430 nM
13,CCNc1ncc2c(n1)CCN(C(=O)c1cc(C(C)C)c(O)cc1O)C2,1580 nM
14,CCCCOc1ncc2c(n1)CCN(C(=O)c1cc(C(C)C)c(O)cc1O)C2,880 nM
15,CC(C)c1cc(C(=O)N2CCc3nc(N4CCCCC4)ncc3C2)c(O)cc1O,4460 nM
16,CCCOc1ncc2c(n1)CCN(C(=O)c1cc(C(C)C)c(O)cc1O)C2,1340 nM
17,Cc1ncc2c(n1)CCN(C(=O)c1cc(Br)c(O)cc1O)C2,1730 nM
18,CC(C)c1cc(C(=O)N2CCc3nc(OC4CCCCC4)ncc3C2)c(O)cc1O,1870 nM
19,CC(C)c1cc(C(=O)N2CCc3nc(N4CCN(C)CC4)ncc3C2)c(O)cc1O,2180 nM

# System: not listed separately
# Test: Intrinsic aqueous solubility of the compound
# Assay type: physicochemical
# Details: not given
row,SMILES,solubility
1,CC(C)c1cc(C(=O)N2CCc3nc(OCCN4CCCC4)ncc3C2)c(O)cc1O,146 µg/mL
2,CCN(CC)CCOc1ncc2c(n1)CCN(C(=O)c1cc(C(C)C)c(O)cc1O)C2,151 µg/mL
3,CC(C)c1cc(C(=O)N2CCc3nc(OCCCN(C)C)ncc3C2)c(O)cc1O,156 µg/mL

# System: not listed separately
# Test: Permeability of the compound at pH 7.4 by PAMPA
# Assay type: ADME
# Details: read-out: permeability
row,SMILES,Papp
1,CC(C)c1cc(C(=O)N2CCc3nc(OCCN4CCCC4)ncc3C2)c(O)cc1O,3.06 ×10⁻⁶ cm/s
2,CCN(CC)CCOc1ncc2c(n1)CCN(C(=O)c1cc(C(C)C)c(O)cc1O)C2,25.7 ×10⁻⁶ cm/s
3,CC(C)c1cc(C(=O)N2CCc3nc(OCCCN(C)C)ncc3C2)c(O)cc1O,4.15 ×10⁻⁶ cm/s
